Data from patent publication US12679878B2, “CRF2 receptor agonists and their use in therapy” (SANOFI, priority 2020, dated 2026).
Starred links: 1 amine or outer side, 2 acyl side, 3 side chain; linkers in the order of their positions; H or OH if unused. Non-standard residues stand in square brackets, D forms with d. Residues, ends and D or L forms follow the SMILES beside them. Groups on a side chain read outwards from the residue. *: point of attachment. C18 diacid = O=C(O)CCCCCCCCCCCCCCCCC(=O)*; C16 diacid = O=C(O)CCCCCCCCCCCCCCC(=O)*; γGlu = O=C(O)[C@H](CCC(=O)[*:2])N[*:1]; Palmitoyl = CCCCCCCCCCCCCCCC(=O)*; AEEA = NCCOCCOCC(=O)O; Aib = CC(C)(N)C(=O)O

Columns and labels:
[1] = Effect on blood pressure, telemetry (Example 17); assay type: in vivo; details: Sprague Dawley rats, 0.1 mg/kg SC
Procedure: The effect of the compounds on blood pressure was determined in telemetry studies in Sprague Dawley rats at a dosage of 0.1 mg/kg SC.
The rats were previously implanted with a telemetry device (DSI, Saint-Paul, USA, HD-S10, HD-S11 or HD S21) and allowed to recover for a minimum period of 2 weeks before treatment with vehicle or the different peptides. Blood pressure (BP) was recorded through a catheter inserted into the abdominal aorta. The device body was placed in the abdomen. At the end of surgery, animals were placed in individual cages until the end of the study.
Pressure signals were recorded for one hour before the treatment (basal period). Thereafter, the subcutaneous administration of the test compound or its vehicle was performed, under continuous recording of the signal over a 48-hour period. Data acquisition was performed using Hem 4.3 acquisition software (Notocord®, Le Pecq, France) connected to the telemetry device. Hemodynamic parameters were recorded during a […] before treatment and every 4-hour period following subcutaneous administration over 48 hours.
Investigated parameters (calculated from BP signal) were Heart Rate (HR) in beats per minute (bpm), Diastolic and Systolic Blood Pressure (DBP) in mmHg, and Mean Blood Pressure (MBP) in mmHg.
Data from Hem were manipulated using Microsoft Excel®. For each parameter, a basal value was determined as the average calculated over a 1-hour period during the pre-treatment sequence, and the values post treatment were calculated over 4-hour periods ([0-4], [4-8], [8-12], [12-16], [16-20], [20-24], [24-28], [32-36], [36-40], [40-44] and [44-48] hours) covering the 48-hour period following administration.
Representative data are presented in Table 15 below, in which “n” represents the number of animals for which individual values were obtained and “Duration” indicates the last time point for which a significant effect on BP was still seen: Table 15

[2] = target: T1, human CRF2α receptor (Homo sapiens, UniProt Q13324); experiment: cAMP agonism at human CRF2α receptor in TeloHEAC cells, FA modified peptides (Example 19.9); assay type: cell-based; details: 0% HSA, relative to urocortin 2
T1 construct: expressed in transfected cells; host or cells: TeloHEAC
T1 sequence (Q13324 1-411): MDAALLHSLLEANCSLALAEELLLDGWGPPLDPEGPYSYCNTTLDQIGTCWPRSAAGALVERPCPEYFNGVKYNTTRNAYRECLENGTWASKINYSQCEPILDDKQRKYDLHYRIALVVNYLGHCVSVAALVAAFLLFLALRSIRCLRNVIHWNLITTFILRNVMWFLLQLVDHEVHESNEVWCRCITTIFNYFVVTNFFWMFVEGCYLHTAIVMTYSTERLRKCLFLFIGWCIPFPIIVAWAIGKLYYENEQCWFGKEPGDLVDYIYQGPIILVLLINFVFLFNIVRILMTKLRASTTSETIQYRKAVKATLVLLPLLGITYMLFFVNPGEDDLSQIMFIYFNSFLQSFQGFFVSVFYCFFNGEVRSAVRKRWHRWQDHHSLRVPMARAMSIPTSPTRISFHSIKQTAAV
How it was run: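 Efficacy and EC50 are referenced to 100 nM urocortin 2 as 100%, with cAMP measured as the 665/620 nm HTRF ratio after 1 h at room temperature. Compounds (0.5 mM DMSO stock, 16 twofold dilutions) acted 30 min at 37 °C on CRF2α-expressing TeloHEAC cells, buffer containing IBMX and 0% or 0.2% HSA.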

[3] = target: T2, CRF1R receptor (Homo sapiens, UniProt P34998); experiment: cAMP activity at anti-target CRF1R, CHO-K1 cell line clone 2 (Example 19.10); assay type: cell-based; details: for CRF1/CRF2 ratio: ratio of CRF1 EC50 to CRF2 EC50
T2 construct: host or cells: CHO-K1 clone 2
T2 sequence (P34998 24-415): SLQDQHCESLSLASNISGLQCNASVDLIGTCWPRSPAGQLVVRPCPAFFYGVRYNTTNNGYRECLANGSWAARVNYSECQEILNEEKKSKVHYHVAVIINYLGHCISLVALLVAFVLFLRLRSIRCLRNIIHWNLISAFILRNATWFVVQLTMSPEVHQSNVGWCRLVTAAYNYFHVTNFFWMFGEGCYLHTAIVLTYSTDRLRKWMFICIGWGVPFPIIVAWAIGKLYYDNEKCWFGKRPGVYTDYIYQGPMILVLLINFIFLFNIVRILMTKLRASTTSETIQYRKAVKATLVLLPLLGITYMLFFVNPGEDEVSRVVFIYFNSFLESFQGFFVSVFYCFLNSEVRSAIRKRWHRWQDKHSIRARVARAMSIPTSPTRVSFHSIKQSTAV
How it was run: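 The cAMP read-out used the same protocol as the previous assay, except that Sauvagine at 100 nM set the 100% activation control. Cells were CHO-K1 clone 2 overexpressing CRF1R, cultured in F12 medium with 10% FBS and G418 and stored frozen until use.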

EC50 [2] | CRF1/CRF2 ratio [3] | EC50 ([3]; 0% HSA, CRF1R CHO-K1 clone 2, read-out: EC50 [nM] 0% HSA) | Emax ([3]; 100% = Sauvagine at 100 nM, CRF1R CHO-K1 clone 2) | Structure (SMILES) | Duration (h): last time point for which a significant effect on BP was still seen [1] | Effect on Systolic Pressure % change from baseline 8 h ([1]; 8 h) | Effect on Systolic Pressure % change from baseline 24 h ([1]; 24 h)
– | – | – | – | CC[C@H](C)[C@H](N)C(=O)N[C@H](C(=O)N[C@@H](CC(C)C)C(=O)N[C@@H](CO)C(=O)N[C@@H](CC(C)C)C(=O)N[C@@H](CC(=O)O)C(=O)N[C@@H](C(=O)N1CCC[C@H]1C(=O)N[C@H](C(=O)N[C@@H](CCCCN)C(=O)N[C@@H](CC(C)C)C(=O)N[C@@H](CCCCNC(=O)COCCOCCNC(=O)COCCOCCNC(=O)CC[C@H](NC(=O)CCCCCCCCCCCCCCCCC(=O)O)C(=O)O)C(=O)N[C@@H](CCC(N)=O)C(=O)N[C@H](C(=O)N[C@@H](CC(C)C)C(=O)N[C@@H](CC(C)C)C(=O)N[C@@H](CCCCN)C(=O)N[C@@H](CCC(N)=O)C(=O)N[C@@H](CCC(=O)O)C(=O)N[C@@H](CCCNC(=N)N)C(=O)N[C@@H](CCC(N)=O)C(=O)N[C@@H](CCCCN)C(=O)NC(C)(C)C(=O)N[C@@H](CCC(N)=O)C(=O)N[C@@H](CCCNC(=N)N)C(=O)N[C@@H](CCC(=O)O)C(=O)N[C@@H](CCC(N)=O)C(=O)N[C@@H](C)C(=O)N[C@@H](CCC(=O)O)C(=O)N[C@@H](CCCCN)C(=O)N[C@@H](CC(N)=O)C(=O)N[C@@H](CCCCN)C(=O)N[C@@H](CCC(N)=O)C(=O)N[C@H](C(=O)N[C@@H](CC(C)C)C(=O)N[C@@H](C)C(=O)N[C@@H](CCC(N)=O)C(=O)N[C@H](C(N)=O)C(C)C)[C@@H](C)CC)[C@@H](C)CC)[C@@H](C)CC)C(C)C)C(C)C [SEQ ID NO: 130, IVLSLDvPIKLK*QILLKQERQKAibQREQAEKNKQILAQV-NH2] (H-IVLSLD[dV]PIKLK([AEEA-AEEA-γGlu-C18 diacid])QILLKQERQK[Aib]QREQAEKNKQILAQV-NH2) | 30 h | −15.2% | −9.9%
5.98 nM | 2 | – | – | CCCCCCCCCCCCCCCC(=O)N[C@@H](CCC(=O)NCCCC[C@H](NC(=O)[C@H](CC(C)C)NC(=O)[C@H](CCCCN)NC(=O)[C@@H](NC(=O)[C@@H]1CCCN1C(=O)[C@H](NC(=O)[C@H](CC(=O)O)NC(=O)[C@H](CC(C)C)NC(=O)[C@H](CO)NC(=O)[C@H](CC(C)C)NC(=O)[C@@H](NC(=O)[C@@H](N)[C@@H](C)CC)C(C)C)C(C)C)[C@@H](C)CC)C(=O)N[C@@H](CCC(N)=O)C(=O)N[C@H](C(=O)N[C@@H](CC(C)C)C(=O)N[C@@H](CC(C)C)C(=O)N[C@@H](CCCCN)C(=O)N[C@@H](CCC(N)=O)C(=O)N[C@@H](C)C(=O)N[C@@H](CCCNC(=N)N)C(=O)N[C@@H](CCC(N)=O)C(=O)N[C@@H](CCCCN)C(=O)NC(C)(C)C(=O)N[C@@H](CCC(N)=O)C(=O)N[C@@H](CCCNC(=N)N)C(=O)N[C@@H](C)C(=O)N[C@@H](CCC(N)=O)C(=O)N[C@@H](C)C(=O)N[C@@H](CCC(=O)O)C(=O)N[C@@H](CCCCN)C(=O)N[C@@H](CC(N)=O)C(=O)N[C@@H](CCCCN)C(=O)N[C@@H](CCCNC(=N)N)C(=O)N[C@H](C(=O)N[C@@H](CC(C)C)C(=O)N[C@@H](CCC(=O)O)C(=O)N[C@@H](CCCNC(=N)N)C(=O)N[C@H](C(N)=O)C(C)C)[C@@H](C)CC)[C@@H](C)CC)C(=O)O [compound 219] (H-IVLSLD[dV]PIKLK([γGlu-Palmitoyl])QILLKQARQK[Aib]QRAQAEKNKRILERV-NH2) | – | – | –
1.48 nM | 6 | – | – | CCCCCCCCCCCCCCCC(=O)N[C@@H](CCC(=O)NCCCC[C@H](NC(=O)[C@H](CC(C)C)NC(=O)CNC(=O)[C@@H](NC(=O)[C@@H]1CCCN1C(=O)[C@H](NC(=O)[C@H](CC(=O)O)NC(=O)[C@H](CC(C)C)NC(=O)[C@H](CO)NC(=O)[C@H](CC(C)C)NC(=O)[C@@H](NC(=O)[C@@H](N)[C@@H](C)CC)C(C)C)C(C)C)[C@@H](C)CC)C(=O)N[C@@H](CCC(N)=O)C(=O)N[C@H](C(=O)N[C@@H](CC(C)C)C(=O)N[C@@H](CC(C)C)C(=O)N[C@@H](CCCCN)C(=O)N[C@@H](CCC(N)=O)C(=O)N[C@@H](CCC(=O)O)C(=O)N[C@@H](CCCNC(=N)N)C(=O)N[C@@H](CCC(N)=O)C(=O)N[C@@H](CCCCN)C(=O)N[C@@H](CCCCN)C(=O)NC(C)(C)C(=O)N[C@@H](CCCNC(=N)N)C(=O)N[C@@H](CCC(N)=O)C(=O)N[C@@H](CCC(N)=O)C(=O)N[C@@H](C)C(=O)N[C@@H](CCC(=O)O)C(=O)N[C@H](C(=O)N[C@@H](CC(N)=O)C(=O)N[C@@H](CCCCN)C(=O)N[C@@H](CCCNC(=N)N)C(=O)N[C@H](C(=O)N[C@@H](CC(C)C)C(=O)N[C@@H](CCC(=O)O)C(=O)N[C@@H](CCCNC(=N)N)C(=O)N[C@H](C(N)=O)C(C)C)[C@@H](C)CC)[C@@H](C)O)[C@@H](C)CC)C(=O)O [compound 220] (H-IVLSLD[dV]PIGLK([γGlu-Palmitoyl])QILLKQERQKK[Aib]RQQAETNKRILERV-NH2; N-terminus assumed) | – | – | –
2.71 nM | – | > 100 nM | 3.2% | CC[C@H](C)[C@H](N)C(=O)N[C@H](C(=O)N[C@@H](CC(C)C)C(=O)N[C@@H](CO)C(=O)N[C@@H](CC(C)C)C(=O)N[C@@H](CC(=O)O)C(=O)N[C@@H](C(=O)N1CCC[C@H]1C(=O)N[C@H](C(=O)N[C@@H](CCCCN)C(=O)N[C@@H](CC(C)C)C(=O)N[C@@H](CCCCNC(=O)CC[C@H](NC(=O)CCCCCCCCCCCCCCC(=O)O)C(=O)O)C(=O)N[C@@H](CCC(N)=O)C(=O)N[C@@H](CCCCN)C(=O)N[C@@H](CC(C)C)C(=O)N[C@@H](CC(C)C)C(=O)N[C@@H](CCCCN)C(=O)N[C@@H](CCC(N)=O)C(=O)N[C@@H](CCC(=O)O)C(=O)N[C@@H](CCCNC(=N)N)C(=O)N[C@@H](CCC(N)=O)C(=O)N[C@@H](CCCNC(=N)N)C(=O)N[C@@H](CCCCN)C(=O)N[C@@H](CCC(=O)O)C(=O)N[C@@H](CCCNC(=N)N)C(=O)N[C@@H](CCC(=O)O)C(=O)N[C@@H](CCC(N)=O)C(=O)N[C@@H](C)C(=O)N[C@@H](CCC(=O)O)C(=O)N[C@@H](CCCCN)C(=O)N[C@@H](CC(N)=O)C(=O)N[C@@H](C)C(=O)N[C@@H](CCCNC(=N)N)C(=O)N[C@H](C(=O)N[C@@H](CC(C)C)C(=O)N[C@@H](C)C(=O)N[C@@H](CCCNC(=N)N)C(=O)N[C@H](C(N)=O)C(C)C)[C@@H](C)CC)[C@@H](C)O)C(C)C)C(C)C [compound 221] (H-IVLSLD[dV]PTKLK([γGlu-C16 diacid])QKLLKQERQRKEREQAEKNARILARV-NH2; N-terminus assumed) | – | – | –
